In US9555013B2, “Modulation of fibroblast activity” (The University of Leicester, priority 2008, dated 2017):
Entries after “also recorded” stand apart in the source; their conditions may differ.

Key:
[1] = tested on: full-thickness 6 mm excisional wounds; assay: Murine excisional wound model with immunohistochemistry; details: for murine wound closure (wound area): FIG. 3, 0.1% in 100 μl hydroactive gel, topical, daily
Protocol: FVB/NJ (β2-AR+/+) mice, were purchased from The Jackson laboratory (Bar Harbor, Me.). All animals used in the study were females between 8-12 weeks of age. β2-AR+/+ mice were anaesthetized by intraperitoneal injection of ketamine (100 mg/kg)/xylazine (10 mg/kg) (Pfizer). Back skin was shaved and two circular full-thickness 6 mm excisional wounds were created 2 cm apart, in the centre of the back, using a sterile 6 mm biopsy punch (SMS Inc.). […] Each mouse was housed separately after wounding until wound harvest. Wounds were left uncovered and digitally photographed, daily, to determine wound contraction over time. Wounds were harvested at days 3 and 5 post-wounding by carefully applying an 8 mm punch (SMS Inc.) around the original wound site and lightly pressing to form an outline on the skin. Scissors were then used to remove the wound site without damaging the delicate wound bed.
For histological analysis the wounds were fixed in an IHC zinc fixative (BD Biosciences). The zinc-fixed biopsies were bisected to ensure that sections were taken from the centre of the wound, dehydrated through an ethanol xylene series, and embedded in paraffin.
Specimens that were damaged in the histological process or otherwise non-interpretable were excluded from the study. Wound closure was quantified by measuring the wound area of each wound from the digital pictures taken every day with Image J, National Institutes of Health website. Images of the smooth muscle-alpha actin (SMA)-stained wounds were captured at 2× magnification on a Nikon SMZ-U upright microscope with Nikon ACT-1 software (as shown in FIG. 4). Image J was used to determine the area of SMA staining in each wound to calculate the mean area of SMA staining in each group (as shown in FIG. 5). Images of the collagen III stained wounds were captured at 20× magnification on a Nikon Eclipse 2000U inverted microscope with NIS-Elements software (as shown in FIG. 6). The intensity of collagen III staining was graded on a scale of 0-6, no staining receiving a score of 0 and the darkest staining receiving a score of 6 (as shown in FIG. 7). The staining of each wound was scored in a double-blind manner and the mean staining intensity was calculated for each group.

Human dermal fibroblasts [2] = assay: Tethered (anchored) collagen gel model of wounded dermis; assay type: cell-based; details: 10 μM, 4 days incubation; for collagen I staining in fibroblasts released from collagen gels: FIG. 8B; for smooth muscle alpha actin staining in fibroblasts released from collagen gels: FIG. 8D
Protocol: 50% collagen I gels were seeded with 30,000 cells per ml in the absence or presence of a β2-AR agonist or a β2-AR antagonist.

dermal fibroblasts = assay: Floating collagen gel contraction assay; assay type: cell-based; details: FIG. 2; 10 nM
Protocol: The individual solutions were prepared and cooled to 4° C. before mixing to prevent premature gelation. The final solution contained 40% (v/v) Vitrogen, 20% DMEM, 30% DMEM with Hepes buffer, and 10% calf serum. Cells were incubated with the appropriate drug concentration for 30 minutes at 37° C. and added to the collagen gel mix just before gel casting at the concentration of 30,000 per ml. The lattices were cast, with 1.7 ml of the final solution per dish, in 35 mm bacteriologic dishes (Falcon Labware, BD Biosciences), to which fibroblasts poorly adhere. The mixture gelled within 30 minutes upon incubation at 37° C. in a humidified atmosphere of 95 percent air and 5 percent CO2.
To determine the effect of β2-AR antagonists on floating gel contraction (as shown in FIG. 2), lattices were detached from the sides of the dishes after 2 hours by rimming the edges of the dishes using a sterile […] and gently shaking the dishes until the gels slid freely. Lattice retraction was measured every day by placing the dishes over a flat ruler on a black background. To determine the effect of β2-AR agonists and antagonists on proliferation of cells in a model of the wound dermis, the gels remained anchored to the side of the dish (as shown in FIG. 8).

Human dermal fibroblasts [3] = assay: Secretion of TGF-β1, TGF-β2, TGF-β3 from dermal fibroblasts (ELISA); assay type: cell-based; details: FIG. 9
Protocol: (§1) Human dermal fibroblasts (FIGS. 9 and 15) or human neutrophils (VEGF only) (FIG. 15) were seeded into 6-well plates and grown to 60% confluence in FM. […] The supernatants were prepared and assayed using ELISA kits for TGF-β1, TGF-β2, 15 TGF-β3 and VEGF (R & D systems) following the Manufacturer's instructions.

Human dermal fibroblasts [4] = assay: Secretion of VEGF from dermal fibroblasts (ELISA); assay type: cell-based; details: FIG. 15; after 48 hours; vs control
Protocol: as §1

human neutrophils = assay: Secretion of VEGF from neutrophils (ELISA); assay type: cell-based; details: FIG. 15; after 48 hours; vs control
Protocol: as §1

In the case of `Cc1ccc(OCC(O)C(C)NC(C)C)c2c1CCC2` (stereo not drawn) [ICI 118,551], the “murine wound closure (wound area)” value [1] is reported as “enhances; also recorded: acceleration”, the “smooth muscle α-actin staining / expressing cells in the wound dermis” value ([1]; FIGS. 4 and 5, 5 days post wounding, 0.1% topical daily, vs controls) is reported as “increase” and the “collagen III deposition (staining) in the wound dermis” value ([1]; FIGS. 6 and 7, 5 days post wounding, 0.1% topical daily, vs controls) is reported as “increase”. For the same compound, the “rigidity of human dermal fibroblast-seeded collagen gels” value (Human dermal fibroblasts [2]; FIG. 8A) was “increases”, the “collagen I staining in fibroblasts released from collagen gels” value (Human dermal fibroblasts [2]) was “increases” and the “smooth muscle alpha actin staining in fibroblasts released from collagen gels” value (Human dermal fibroblasts [2]) was “increases”. For the same compound, the “dermal fibroblast-mediated floating collagen gel contraction” value (dermal fibroblasts) was “enhance”, the “increase in TGF-β1 levels” value (Human dermal fibroblasts [3]; 10 μM, 24 hours, vs control) was 3 fold and the “increase in amount of TGF-β3 secreted” value (Human dermal fibroblasts [3]; 10 μM, 24 hours, vs control) was “no effect”. The “increase in TGFβ2 levels” value (Human dermal fibroblasts [3]; 10 μM, after 6 hours, vs control) was 1.6 fold and the “increase in TGF-β2 levels” value (Human dermal fibroblasts [3]; time given as 24 hours, not stated) was 1.6 fold.

In the case of `COc1ccc(CC(C)NCC(O)c2ccc(O)c(NC=O)c2)cc1` (stereo not drawn) [formotorol], the “amount of VEGF secreted from human dermal fibroblasts” value (Human dermal fibroblasts [4]) is reported as “decrease”.

`CC(C)NCC(O)c1ccc(O)c(O)c1` (stereo not drawn) [isoproterenol] was tested, and the “amount of VEGF secreted from human dermal fibroblasts” value (Human dermal fibroblasts [4]) was “decrease” and the “amount of VEGF secreted from human neutrophils” value (shortened to “amount … from human neutrophils”) (human neutrophils) was “decrease”.

With `CC(C)(C)NCC(O)c1ccc(O)c(CO)c1` (stereo not drawn) [salbutamol] the “amount of VEGF secreted from human dermal fibroblasts” value (Human dermal fibroblasts [4]) was “decrease”, the “amount … from human neutrophils” value (human neutrophils) was “decrease” and the “murine wound closure (wound area)” value [1] was “delayed”. For the same compound, the “collagen I staining in fibroblasts released from collagen gels” value (Human dermal fibroblasts [2]) was “decreases”, the “human dermal fibroblast proliferation in collagen gels” value (Human dermal fibroblasts [2]; FIG. 8C) was “decreases” and the “smooth muscle alpha actin staining in fibroblasts released from collagen gels” value (Human dermal fibroblasts [2]) was “decreases”. For the same compound, the “decrease in amount of TGF-β1 secreted” value (Human dermal fibroblasts [3]; 10 μM, 24 hours, vs control) was 4 fold, the “increase in amount of TGF-β3 secreted” value (Human dermal fibroblasts [3]; 10 μM, 24 hours, vs control) was 5 fold and the “decrease in amount of secreted TGFβ1” value (Human dermal fibroblasts [3]; 10 μM, after 24 hours, vs control) was 74%.

For `OCc1cc(C(O)CNCCCCCCOCCCCc2ccccc2)ccc1O` (stereo not drawn) [salmeterol], the “amount of VEGF secreted from human dermal fibroblasts” value (Human dermal fibroblasts [4]) was “decrease” and the “amount … from human neutrophils” value (human neutrophils) was “decrease”.

For `CC(C)(C)NC[C@H](O)COc1nsnc1N1CCOCC1` [timolol], the “amount of VEGF secreted from human dermal fibroblasts” value (Human dermal fibroblasts [4]) was “increase” and the “amount … from human neutrophils” value (human neutrophils) was “increase”.
